This is an account of results in patent US20220323406A1, “METHODS AND COMPOSITIONS FOR DIFFERENTIATING STEM CELLS” (Massachusetts Institute of Technology, priority 2019, published 2022).

What all share (settings): primary screen
Assay [1] has as its system ENR+CD organoids (ISC to Paneth cell differentiation). The assay is described as follows: Primary screen: CCh-stimulated lysozyme secretion LYZ.S, 2.5-D 384-well ENR+CD organoid differentiation. In kind it is cell-based, mouse. An excerpt: (§1) High-throughput screening.
For a further assay, the system named is ENR+CD organoids. The assay is described as follows: Primary screen: ATP (CellTiter-Glo 3D, CTG) cell number/viability, 2.5-D 384-well ENR+CD organoids.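 Also: compounds given at plating and again on day 3 over a 6-day differentiation from ENR+CV stem-cell-enriched precursors, ATP measured on day 6, plate median as control.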
For assay [2], the system named is ENR+CD organoids (ISC to Paneth cell differentiation). Kind of assay: Primary screen: basal (non-stimulated) lysozyme secretion LYZ.NS, 2.5-D 384-well ENR+CD organoid differentiation. In kind it is cell-based, mouse.
Description: as §1

With `CCc1cc(Nc2nccc(-c3c(-c4ccc(OC)c(C(=O)Nc5c(F)cccc5F)c4)nc4ccccn34)n2)c(OC)cc1N1CCC(N2CCN(S(C)(=O)=O)CC2)CC1` [GSK1904529A], the “Dose.FC.LYZ.S (log2 fold change)” value in assay [1] (dose 0.08 uM) is 0.133; in assay [1] (dose 0.40 uM), −0.047; in assay [1] (dose 2.00 uM), −0.225; in assay [1] (dose 10.00 uM), −0.276. The “Dose.FC.CTG (log2 fold change)” value with ENR+CD organoids (dose 0.08 uM) is reported as 0.202; in the assay on ENR+CD organoids (dose 0.40 uM), −0.071; in the assay with ENR+CD organoids (dose 2.00 uM), −0.570; in the assay on ENR+CD organoids (dose 10.00 uM) it was −0.691. The “Z.CTG (standard z score)” value is reported as 0.484 in the assay with ENR+CD organoids (dose 0.08 uM), −0.170 in the assay with ENR+CD organoids (dose 0.40 uM), −1.361 in the assay with ENR+CD organoids (dose 2.00 uM) and −1.649 in the assay with ENR+CD organoids (dose 10.00 uM). Also, the “Dose.FC.LYZ.NS (log2 fold change)” value in assay [2] (dose 0.08 uM) is reported as 0.102; in assay [2] (dose 0.40 uM) it was 0.112; in assay [2] (dose 2.00 uM) it was −0.179; in assay [2] (dose 10.00 uM), −0.163. The “Z.LYZ.NS (standard z score)” value in assay [2] (dose 0.08 uM) is recorded as 0.890; in assay [2] (dose 0.40 uM) it was 0.977; in assay [2] (dose 2.00 uM) it was −1.557; in assay [2] (dose 10.00 uM) it was −1.419.
With `Cc1cccc(CC(=O)N2CCc3c2ccc(-c2cn(C)c4ncnc(N)c24)c3F)n1` [GSK2656157], the “Dose.FC.LYZ.S (log2 fold change)” value was −0.008 in assay [1] (dose 0.08 uM), 0.060 in assay [1] (dose 0.40 uM), −0.020 in assay [1] (dose 2.00 uM) and 0.090 in assay [1] (dose 10.00 uM). Further, the “Dose.FC.CTG (log2 fold change)” value in the assay with ENR+CD organoids (dose 0.08 uM) is reported as 0.068; in the assay on ENR+CD organoids (dose 0.40 uM) it was 0.115; in the assay with ENR+CD organoids (dose 2.00 uM), 0.083; with ENR+CD organoids (dose 10.00 uM) it was 0.119. The “Z.CTG (standard z score)” value came out at 0.162 in the assay with ENR+CD organoids (dose 0.08 uM), 0.274 in the assay with ENR+CD organoids (dose 0.40 uM), 0.197 in the assay with ENR+CD organoids (dose 2.00 uM) and 0.284 in the assay on ENR+CD organoids (dose 10.00 uM). Moreover, the “Dose.FC.LYZ.NS (log2 fold change)” value in assay [2] (dose 0.08 uM) is listed as −0.031; in assay [2] (dose 0.40 uM), −0.045; in assay [2] (dose 2.00 uM), −0.033; in assay [2] (dose 10.00 uM), −0.012. Moreover, the “Z.LYZ.NS (standard z score)” value in assay [2] (dose 0.08 uM) is recorded as −0.267; in assay [2] (dose 0.40 uM) it was −0.396; in assay [2] (dose 2.00 uM), −0.291; in assay [2] (dose 10.00 uM), −0.102.
In the case of `CCOC(=O)CCNc1cc(N2CCc3ccccc3CC2)nc(-c2ccccn2)n1.Cl` [GSK J4 HCl], the “Dose.FC.LYZ.S (log2 fold change)” value in assay [1] (dose 0.08 uM) is 0.086; in assay [1] (dose 0.40 uM), 0.109; in assay [1] (dose 2.00 uM) it was 0.041; in assay [1] (dose 10.00 uM), −0.002. The “Dose.FC.CTG (log2 fold change)” value with ENR+CD organoids (dose 0.08 uM) is recorded as 0.124; in the assay with ENR+CD organoids (dose 0.40 uM), 0.099; in the assay with ENR+CD organoids (dose 2.00 uM) it was 0.002; in the assay on ENR+CD organoids (dose 10.00 uM) it was 0.233. Moreover, the “Z.CTG (standard z score)” value is on record as 0.297 in the assay on ENR+CD organoids (dose 0.08 uM), 0.237 with ENR+CD organoids (dose 0.40 uM), 0.006 in the assay on ENR+CD organoids (dose 2.00 uM) and 0.558 with ENR+CD organoids (dose 10.00 uM). The “Dose.FC.LYZ.NS (log2 fold change)” value in assay [2] (dose 0.08 uM) is reported as 0.058; in assay [2] (dose 0.40 uM) it was 0.050; in assay [2] (dose 2.00 uM), 0.018; in assay [2] (dose 10.00 uM), −0.001. The “Z.LYZ.NS (standard z score)” value in assay [2] (dose 0.08 uM) was 0.508; in assay [2] (dose 0.40 uM) it was 0.433; in assay [2] (dose 2.00 uM), 0.153; in assay [2] (dose 10.00 uM), −0.006.
Consider `Cc1cc(SCc2sc(-c3ccc(C(F)(F)F)c(F)c3)nc2C)ccc1OCC(=O)O` [GW0742], for which the “Dose.FC.LYZ.S (log2 fold change)” value is 0.048 in assay [1] (dose 0.08 uM), 0.106 in assay [1] (dose 0.40 uM), 0.014 in assay [1] (dose 2.00 uM) and −0.183 in assay [1] (dose 10.00 uM). In addition, the “Dose.FC.CTG (log2 fold change)” value with ENR+CD organoids (dose 0.08 uM) is listed as −0.751; in the assay with ENR+CD organoids (dose 0.40 uM), −0.489; with ENR+CD organoids (dose 2.00 uM), −0.249; with ENR+CD organoids (dose 10.00 uM), −0.451. In addition, the “Z.CTG (standard z score)” value in the assay on ENR+CD organoids (dose 0.08 uM) was −1.794; in the assay with ENR+CD organoids (dose 0.40 uM) it was −1.167; with ENR+CD organoids (dose 2.00 uM), −0.596; with ENR+CD organoids (dose 10.00 uM), −1.078. For the same compound, the “Dose.FC.LYZ.NS (log2 fold change)” value is 0.052 in assay [2] (dose 0.08 uM), 0.045 in assay [2] (dose 0.40 uM), 0.026 in assay [2] (dose 2.00 uM) and −0.152 in assay [2] (dose 10.00 uM). The “Z.LYZ.NS (standard z score)” value in assay [2] (dose 0.08 uM) is reported as 0.454; in assay [2] (dose 0.40 uM) it was 0.390; in assay [2] (dose 2.00 uM), 0.231; in assay [2] (dose 10.00 uM) it was −1.322.
Regarding `COc1ccc(COc2ccc(Cc3cnc(N)nc3N)cc2OC)cc1` [GW2580], the “Dose.FC.LYZ.S (log2 fold change)” value was −0.013 in assay [1] (dose 0.08 uM), 0.020 in assay [1] (dose 0.40 uM), −0.060 in assay [1] (dose 2.00 uM) and −0.026 in assay [1] (dose 10.00 uM). Moreover, the “Dose.FC.CTG (log2 fold change)” value is on record as −0.042 in the assay with ENR+CD organoids (dose 0.08 uM), −0.284 with ENR+CD organoids (dose 0.40 uM), 0.029 in the assay on ENR+CD organoids (dose 2.00 uM) and −0.038 in the assay with ENR+CD organoids (dose 10.00 uM). Besides, the “Z.CTG (standard z score)” value is −0.101 in the assay with ENR+CD organoids (dose 0.08 uM), −0.678 in the assay on ENR+CD organoids (dose 0.40 uM), 0.068 in the assay on ENR+CD organoids (dose 2.00 uM) and −0.091 in the assay on ENR+CD organoids (dose 10.00 uM). The “Dose.FC.LYZ.NS (log2 fold change)” value in assay [2] (dose 0.08 uM) was 0.006; in assay [2] (dose 0.40 uM), 0.014; in assay [2] (dose 2.00 uM) it was −0.060; in assay [2] (dose 10.00 uM) it was −0.018. In addition, the “Z.LYZ.NS (standard z score)” value is on record as 0.056 in assay [2] (dose 0.08 uM), 0.118 in assay [2] (dose 0.40 uM), −0.525 in assay [2] (dose 2.00 uM) and −0.158 in assay [2] (dose 10.00 uM).
As to `Cl.O=C(O)Cc1cccc(OCCCN(Cc2cccc(C(F)(F)F)c2Cl)CC(c2ccccc2)c2ccccc2)c1` [GW3965 HCl], the “Dose.FC.LYZ.S (log2 fold change)” value is on record as 0.091 in assay [1] (dose 0.08 uM), 0.074 in assay [1] (dose 0.40 uM), 0.179 in assay [1] (dose 2.00 uM) and −0.047 in assay [1] (dose 10.00 uM). The “Dose.FC.CTG (log2 fold change)” value in the assay with ENR+CD organoids (dose 0.08 uM) was 0.138; with ENR+CD organoids (dose 0.40 uM), 0.201; in the assay on ENR+CD organoids (dose 2.00 uM), 0.229; in the assay on ENR+CD organoids (dose 10.00 uM), −0.078. Moreover, the “Z.CTG (standard z score)” value with ENR+CD organoids (dose 0.08 uM) was 0.330; with ENR+CD organoids (dose 0.40 uM), 0.481; in the assay with ENR+CD organoids (dose 2.00 uM) it was 0.546; with ENR+CD organoids (dose 10.00 uM), −0.186. The “Dose.FC.LYZ.NS (log2 fold change)” value in assay [2] (dose 0.08 uM) is recorded as 0.059; in assay [2] (dose 0.40 uM), 0.002; in assay [2] (dose 2.00 uM) it was 0.077; in assay [2] (dose 10.00 uM), −0.009. For the same compound, the “Z.LYZ.NS (standard z score)” value in assay [2] (dose 0.08 uM) was 0.516; in assay [2] (dose 0.40 uM), 0.013; in assay [2] (dose 2.00 uM), 0.673; in assay [2] (dose 10.00 uM) it was −0.080.
